This is an account of results in publication PMC7082753, “Hazards of Using Masking Protocols When Performing Ligand Binding Assays: Lessons From the Sigma-1 and Sigma-2 Receptors” (Frontiers in Pharmacology, 2020).

Molecules are shown by their SMILES. Like-named read-outs stand apart in the source and are kept apart here.

The test system of assay [1] is residual binding sites for [³H] DTG in TMEM97 knock-out HeLa cells. The conditions noted are these: cited from earlier work.
Assay [2] deals with sigma-2 receptor. On the set-up: method as in Hou et al., 2006; Zeng et al., 2019. The settings on record: ref Hou et al., 2006; Zeng et al., 2019; cited from earlier work.
The target of assay [3] is sigma-1 receptor. More on the design: method as in Hou et al., 2006; Zeng et al., 2019. The conditions noted are these: ref Hou et al., 2006; Zeng et al., 2019; cited from earlier work.
Assay [4] addresses sigma-1 receptor. The conditions noted are these: ref Hellewell and Bowen, 1990; read-out: Ki (sigma-1 affinity); cited from earlier work.
The test system of assay [5] is sigma-2 receptor. The settings on record: PC12 cells, ref Hellewell and Bowen, 1990, cited from earlier work.
Assay [6] addresses sigma-1 receptor. Briefly: Literature dextrallorphan competition against [³H] PPP (Largent et al.). Type of assay: binding. The conditions noted are these: data of ref Largent et al., 1987.
Assay [7] deals with sigma-1 receptor. More on the design: method as in Largent et al., 1987. The settings on record: ref Largent et al., 1987, cited from earlier work.
Assay [8] has as its system sigma-2 receptor. Briefly: Literature [³H] DTG and [³H] PPP binding in PC12 cells and affinity estimated from it. The conditions noted are these: for K30: 30 % displacement; for Ki: data of ref Hellewell and Bowen, 1990. More on the design: species or system rat. The source says:
Calculations for saturation binding are based on non-linear analysis of idealised data.

A further assay concerns sigma receptors. Briefly: Saturation binding of pan-sigma ligand [³H] DTG to MDA-MB-468 cell membranes. The conditions noted are these: MDA-MB-468 membranes; n = 3. More on the design: species or system human. On the procedure: (§1) Assays (total volume 100 μl) were performed at room temperature for 4 h with 1–300 nM [^3H] […] Assays were terminated by addition of ice-cold TBS and filtration through glass fibre filters (GF/C, Sigma-Aldrich, Poole, UK) using a cell harvester. Tubes and filter discs were washed with ice-cold TBS (2 x 3 ml) and the filter discs dried under vacuum. Scintillation counting was carried out in ProSafe FC+ cocktail after overnight incubation.

Assay [9] relates to sigma-1 receptor. The conditions noted are these: not affected by GTP or suramin; ref Brimson et al., 2011; cited from earlier work.
Assay [10] addresses T1, sigma-2 receptor (Homo sapiens, UniProt Q5BJF2). Briefly: [³H] DTG saturation binding to MCF7 membranes in absence or presence of (+) pentazocine. On the set-up: from sigma-2 receptors in membranes prepared from MCF7 cells; endogenous in cells; host or cells: MCF7 (ATCC HTB-22) cell membranes. On the procedure:
as §1

The target in assay [11] is T2, sigma-1 receptor (Homo sapiens, UniProt Q99720).
T2 construct: sigma-1 receptors in membranes prepared from MDA-MB-468 cells; endogenous in cells; host or cells: MDA-MB-468 (ATCC HTB-132) cell membranes
T2 sequence (Q99720 whole entry): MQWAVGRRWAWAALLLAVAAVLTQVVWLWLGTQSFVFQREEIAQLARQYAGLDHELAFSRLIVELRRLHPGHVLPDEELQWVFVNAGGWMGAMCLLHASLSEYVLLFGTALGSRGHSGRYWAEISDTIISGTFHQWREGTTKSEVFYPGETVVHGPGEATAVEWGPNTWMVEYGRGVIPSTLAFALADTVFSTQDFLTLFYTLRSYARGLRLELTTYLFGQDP
It is filed as binding. The conditions noted are these: MDA-MB-468; two-site analysis. As for the experimental part:
(§2) Competition binding assays (total volume 100 μl) were performed using a final assay concentration of 50 nM, 100 nM, or 1 µM [^3H] […] Alternatively, 10–30 nM [³H] […] The assay was then allowed to equilibrate at room temperature for 4 h. […] Tubes and filter discs were washed with ice-cold TBS (2 x 3 ml), and the filter discs dried under vacuum.

Assay [12] addresses T1, sigma-2 receptor. Briefly: Two-site competition of (+) pentazocine with [³H] DTG in MDA-MB-468 membranes, low-affinity site. It is filed as binding. More on the design: endogenous in cells. The settings on record: two-site analysis. As for the experimental part:
as §2

Another assay relates to sigma sites. The conditions noted are these: spinal cord; competition experiments; ref Kovacs and Larson, 1995; cited from earlier work.
Assay [13] deals with sigma-1 receptor. Briefly: Saturation binding of [³H] (+) pentazocine to MCF7 cell membranes. More on the design: species or system human.
Method: MDA-MB-468 cells were maintained in DMEM, high glucose (41965-062) supplemented with 10% foetal calf serum. MCF7 cells were maintained in MEM (M2279) supplemented with 2 mM L-glutamine and 10% foetal calf serum. Cells were cultured at 37°C in a humidified incubator with 5% CO2. […] The supernatant was discarded and the pellet suspended in SBB.
Assays (total volume 100 µl) were performed using 0–300 nM [^3H] […] Non-specific binding was determined using 1 mM reduced haloperidol ([Schetz et al., 2007]). […] Assays were terminated by addition of ice-cold tris-buffered saline (TBS: 154 mM NaCl, 10 mM Tris, pH 7.4) and filtration through glass fibre filters (GF/B, Sigma-Aldrich, Poole, UK) using a cell harvester. Tubes and filter discs were washed (2 x 3 ml) with ice-cold TBS, and the filter discs dried under vacuum. Scintillation counting was carried out in ProSafe FC+ cocktail (Meridian Biotechnologies Ltd, Tadworth, UK) after overnight incubation.

T1 sequence (Q5BJF2 whole entry): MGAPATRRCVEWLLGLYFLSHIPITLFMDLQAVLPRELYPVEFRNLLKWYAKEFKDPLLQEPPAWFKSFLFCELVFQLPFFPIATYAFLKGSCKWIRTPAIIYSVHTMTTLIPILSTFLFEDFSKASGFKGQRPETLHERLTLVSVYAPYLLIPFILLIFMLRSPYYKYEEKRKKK

As for `COc1cc2c(cc1OC)CN(CCCCNC(=O)c1cc(I)cc(OC)c1OC)CC2` [RHM-4], the “detection of residual binding when used as radioligand” value in assay [1] (ref Zeng et al., 2019) is given as “unable to detect this residual binding”. Moreover, the Ki is 8.2 nM at sigma-2 receptor [2] and 12900 nM on sigma-1 receptor [3].

Broadly, the IC50 is the concentration at which inhibition is half-maximal. Turning to `C=CCN1CC[C@@]23CCCC[C@@H]2[C@@H]1Cc1ccc(O)cc13` [dextrallorphan], the Ki at sigma-1 receptor [4] was 16.1 nM; on sigma-1 receptor [6] (Cheng-Prusoff correction of IC50 163 nM, read-out: Ki) it was 153 to 158 nM; on sigma-1 receptor [6] (lowest calculated affinity, from Ki 153-158 nM, read-out: sigma-1 affinity used for modelling), 155 nM; in the assay on sigma-2 receptor [8] (estimated from DTG data in PC12 cells), 44700 nM; in the assay on sigma-2 receptor [8] (estimated from PPP data in PC12 cells), 15000 nM. For the same molecule, the “displacement of [³H] DTG or [³H] PPP” value in the assay on sigma-2 receptor [5] (5 μM dextrallorphan) is recorded as “less than 30%”. The IC50 on sigma-1 receptor [7] (against 1-2 nM [³H] PPP) was 163 nM. The K30 is 18.76 µM with sigma-2 receptor [8] (calculated using DTG (5 nM, Kd […])) and 6.55 µM with sigma-2 receptor [8] (calculated using PPP (3 nM, Kd 86.3 nM)).

For orientation: pKd means the negative decadic logarithm of the Kd, by convention in mol/L. A higher pKd goes with a low Kd. Regarding `Cc1ccccc1NC(=N)Nc1ccccc1C` [DTG, 1,3-di-O-tolylguanidine], the Kd in assay [1] (presence of 1 μM (+) pentazocine, ref Riad et al., 2018, Zeng et al., 2019, read-out: apparent Kd) is 300 to 400 nM. This molecule also came in with a negative-log Kd (pKd) in the assay on sigma receptors of 7.88 ± 0.01.

As to `CC(C)=CCN1CC[C@]2(C)c3cc(O)ccc3C[C@H]1[C@H]2C` [(+) pentazocine, (1S,9S,13S)-1,13-dimethyl-10-(3-methylbut-2-en-1-yl)-10-azatricyclotrideca-2,4,6-trien-4-ol], the Hill slope entry in the assay with sigma-1 receptor [9] is given as “unity”. Also, the “effect on Bmax of [³H] DTG” value on sigma-2 receptor [10] (100 nM (+) pentazocine) is “did not affect”. For the same molecule, the “effect on calculated Bmax of [³H] DTG” value on sigma-2 receptor [10] (1 µM (+) pentazocine) was “did not affect”. Further, in the assay on sigma-2 receptor [5], the “displacement of DTG and PPP binding” value is “low-affinity”. Besides, the “% of sites with high affinity” value at sigma-1 receptor [11] was 36%. Besides, the “% of sites with low affinity” value at sigma-2 receptor [12] is given as 64%. The “[³H] DTG displaced with high affinity” value in the assay with sigma sites is 30%. Besides, the specific binding entry in the assay on sigma-1 receptor [13] is “no specific binding”.

As to `CCCN1CCCC(c2cccc(O)c2)C1` (single isomer, unassigned; (+)) [PPP, (+)-3-(3-hydroxyphenyl)-N-(1-propyl)piperidine], the Kd was 86.3 nM on sigma-2 receptor [5] (PPP) and 30 nM on sigma-1 receptor [7] (radioligand [³H] PPP).
